Results reported in patent US20240294478A1, “ANTI-CANCER COMPOUNDS AND METHODS OF USE” (YALE UNIVERSITY, priority 2021, published 2024).

Legend:
Type in all cases: cell-based, human
[1] = system: HCT116 cells complemented with chromosome 3 carrying wildtype MLH1 (+Chr3); experiment: Short-term viability assay, HCT116 +Chr3 cells +/- O6BG; conditions: with or without 10 μM O6BG pre-treatment
Procedure: (§1) FIG. 1B: Short-term viability assay curves for KL-50 in DLD1 MSH6-deficient cells pre-treated with 0.01% DMSO control (CTR) or 10 μM O^6BG (+O^6BG) for 1 h prior to KL-50 addition. […] Short-term viability assay curves for (FIG. 1E) KL-50 in HCT116 MLH1−/−cells or (FIG. 1F) HCT116 cells complemented with chromosome 3 carrying wildtype MLH1 (+Chr3) pre-treated with 0.01% DMSO control or 10 μM O^6BG (+O^6BG) for 1 h prior to KL-50 addition. […] For these figures, points, mean; error bars, SD; n>3 technical replicates.
(§2) Short-term Cell Viability Assay. Cells were seeded in 96-well plates at 1000 or 2000 cells/well and allowed to adhere at 23° C. for 60 min and then incubated overnight at 37° C. Cells were treated with indicated concentrations of compounds in triplicate for 4-6 days prior to fixation with 3.7% paraformaldehyde and nuclear staining with 1 μg/mL Hoechst 33342 dye. Cells were imaged on a Cytation 3 imaging reader (BioTek) and quantified using CellProfiler software. For in vitro short-term growth delay experiments, IC50 values were determined from the nonlinear regression equation, [inhibitor] vs normalized response with variable slope.

[2] = system: LN229 MGMT+/−, MMR+/− cells; experiment: Cell cycle analysis; conditions: 20 μM
Procedure: FIGS. 6A-6E: Selected cell cycle analysis upon drug treatment. FIG. 6A: Percentage of cells in G1, S, and G2 cell cycle phases after treatment, as in FIGS. 5A-5C, measured using integrated nuclear (Hoechst) staining intensity. Columns, mean; error bars, SD; n=3 independent analyses.
Cell Cycle Analysis. Cell cycle analysis was performed using integrated Hoechst nucleic acid dye fluorescence intensity. Briefly, integrated Hoechst fluorescence intensity was log 2 transformed and histograms from DMSO-treated cells were used to identify the centers of the 2N and 4N DNA peaks. These values were used to normalize the 2N DNA peak to 1 and the 4N DNA peak to 2. Cells were then classified by normalized log 2 DNA content as G1 (0.75-1.25), S (1.25-1.75), or G2 (1.75-2.5) phase cells. The percentage of cells within each phase of the cell cycle was determined for each treatment condition. The three sets of Hoechst-stained cells corresponding to the three separate DNA foci stains were treated as three independent analyses.

[3] = system: DLD1 colorectal adenocarcinoma cells (MSH6−); experiment: Short-term viability assay, DLD1 MSH6-deficient cells +/- O6BG; conditions: with or without 10 μM O6BG pre-treatment (MGMT depletion)
Procedure: as §1, §2

[4] = system: four isogenic LN229 glioblastoma cell lines; experiment: Short-term cell viability assays, statements across the isogenic lines; conditions: regardless of MMR status
Procedure: LN229 MGMT- and MGMT+ cell lines were a gift from B. Kaina (Johannes Gutenberg University Mainz, Mainz, Germany) and grown in Gibco® Duilbecco's Modified Eagle Medium with 10% fetal bovine serum (DMEM). For each compound tested, the relationship between MGMT status and MMR status and compound activity, in terms of IC50 values ([…]), was determined by the following method. On day 1, LN229 isogenic cells of varying MGMT and MMR status were seeded in 96 well format at a density of 2000 cells/well in 100 μL of DMEM media and allowed to adhere overnight. On day 2, a drug master plate was made with 100×the desired maximal concentration of test compound and serially diluted by 2 until 100×the minimal desired concentration, with one DMSO control. Then daughter plates were created with varied concentrations from 3-times the minimal concentration to 3-times the maximal desired concentration. Afterwards, 50 μL of daughter drug plate was added to 100 μL of the seeded cells for a final concentration of 1×in triplicate. Cells were allowed to grow for 6 days. On day 7, the cells were fixed, and stained with Hoechst nuclear dye and imaged to determine growth inhibition.
For each compound tested, the relationship between MGMT status and MMR status and compound activity, in terms of IC50 values (in μM), was determined. In addition, for each compound, the therapeutic index (TI) was calculated, according to the equation MGMT TI=IC50 (MGMT+/MMR+) divided by IC50 (MGMT−/MMR+). The T1 indicates the efficacy of a compound in treating the targeted MGMT-cancer cells as compared to potential for the same compound to damage, or have adverse effects against, normal cells which are MGMT+cells, The higher the value of the TI, the safer the compound is. […] MMR RI (resistance index)=IC50 (MGMT−/MMR−) divided by IC50 (MGMT−/MMR+). The higher the value of the RI, the less likely that resistance to the compound will develop.
as §2

LN229 MGMT− shMSH6 cells = experiment: Short-term viability assay, LN229 MGMT- shMSH6; conditions: for IC50: Homo sapiens, LN-229, Table III, read-out: IC50 against LN229 cell lines, MGMT− MMR−; for MGMT− RI: Table III
Procedure: The activity of KL-50 in MGMT-LN229 cells engineered to lack expression of other key MMR proteins including MSH6, MLH1, PMS2, and MSH3 was also confirmed. Western blotting was performed in LN229 MGMT+/−cells with stable expression of shRNA targeting MSH6, MLH1, PMS2, or MSH3 to confirm depletion of the shRNA targets. In shMSH6 cells, there was reduced expression of MSH2, and in shMLH1 cells, there was loss of PMS2, due to destabilization in the setting of loss of their heterodimeric partners. GAPDH serves as loading control. […] Short-term viability assay curves for KL-50 in LN229 MGMT+/−, MMR+/shMSH6 cells. […] Short-term viability assay curves for KL-50 in LN229 MGMT+/−, MMR+/shMLH1 cells. […] Short-term viability assay curves for KL-50 in LN229 MGMT+/−, MMR+/shPMS2 cells. […] Short-term viability assay curves for KL-50 in LN229 MGMT+/−, MMR+/shMSH3 cells.
MMR Protein shRNA Knockdown. pGIPZ lentiviral shRNA vectors targeting MSH2, MSH6, MLH1, PMS2, and MSH3 were purchased from Horizon Discovery (Table IV). Lentiviral particles were produced in HEK293T cells via co-transfection with lentiviral shRNA plasmid, pCMV-VSV-G envelope plasmid (Addgene, #8454) and psPAX2 packaging plasmid (Addgene, #12260), using Lipofectamine 3000 Reagent (Invitrogen, L3000001) per manufacturer's protocol. Viral particles were harvested 48 h post-transfection and used to transduce LN229 MGMT+/−cells in the presence of 8 μg/mL polybrene. Selection of pooled cells with lentiviral expression was established with 1 μg/mL puromycin 48 h post-transduction for 3 to 4 days. Single cell cloning was performed by limiting dilution and protein knockdown was confirmed by western blotting.
as §2

Row | Compound | cytotoxicity in HCT116 MLH1-complemented cells [1] | G2 arrest in MGMT+/MMR+ cells [2] | G2 arrest in MGMT−/MMR− cells [2] | G2 arrest in MGMT−/MMR+ cells ([2]; 24 to 48 h) | cytotoxicity in DLD1 cells [3] | activity in MGMT+ cells, in words [4] | IC50 (LN229 MGMT− shMSH6 cells) | MGMT− RI (LN229 MGMT− shMSH6 cells)
1 | NC(=O)c1ncn2c(=O)n(CCF)nnc12 [KL-50] | induced selective tumor cell killing specifically in the setting of O^6BG-induced MGMT suppression | moderate G2 arrest | attenuated G2 arrest | increasing G2 arrest | toxic to these cells, but only after O^6BG-induced MGMT depletion | limited activity | 6.6 ± 0.4 µM | 0.5
2 | Cn1nnc2c(C(N)=O)ncn2c1=O [TMZ, 4-methyl-5-oxo-2,3,4,6,8-pentazabicyclo[4.3.0]nona-2,7,9-triene-9-carboxamide, reference compound] | enhanced sensitivity to TMZ, which was further potentiated by MGMT depletion | moderate G2 arrest | absent | – | inactive | essentially inactive | 950 ± 68 µM | 186
